Test results as given in patent US12383519B2, “Application of CaMK4 in preparation of medicine for preventing and treating psoriasis” (priority 2021, dated 2025).

B1: IL-10: exogenous interleukin-10, central anti-inflammatory mediator, injected through tail vein (protein, UniProt P22301 19-178, looked up)
Interleukin-10: SPGQGTQSENSCTHFPGNLPNMLRDLRDAFSRVKTFFQMKDQLDNLLLKESLLEDFKGYLGCQALSEMIQFYLEEVMPQAENQDPDIKAHVNSLGENLKTLRLRLRRCHRFLPCENKSKAVEQVKNAFNKLQEKGIYKAMSEFDIFINYIEAYMTMKIRN

Tests used:
[1] = system: IMQ-induced psoriasiform inflammation in mice; test: IMQ-induced mouse model of psoriasis, treatment with CaMK4 inhibitor KN-93; type: in vivo; settings: KN-93 0.24 mg per mouse, tail vein, vs PBS control
Protocol: (§1) An internationally used mouse model of psoriasis was used: 6-8-week-old C57BL/6 mice were given 5% IMQ applied to the shaved back skin of the mice at 62.5 mg per day for 5 days. The 6-8-week-old C57BL/6 mice were used as controls.
(§2) 1) The back skin thickness, scaling and erythema development of mice were observed on days 0 -5 after applying IMQ to the shaved back skin of mice. According to the clinical psoriasis area and severity index, the severity of back skin was evaluated by thickness, scaling and erythema. The back skin thickness was measured with vernier calipers. Scaling and erythema were scored on a scale ranging from 0-4: 0 represents none; 1 represents mild; 2 represents moderate; 3 represents significant; and 4 represents very significant.
2) Skin sections were prepared for staining with H&E, and the skin sections were stained by using the conventional universal H&E staining method.
(§3) 3) Statistical analysis of epidermal thickness. Specifically, H&E-stained sections were photographed in a double-blind manner and then measured for epidermal thickness.
5) The mRNA levels of IMQ induced mouse skin pathogenic factors were detected by quantitative PCR. The method was the same as that in the example 1.
62.5 mg of IMQ were applied to the shaved back skin of wild-type mice for 5 days. KN-93 (0.24 mg per mouse) or PBS was injected into mice through tail vein one hour before IMQ application on day 0 and day 2. Samples were collected on day 5 for subsequent experiments.

[2] = system: IMQ-induced psoriasiform inflammation in mice; test: IMQ-induced mouse model of psoriasis, exogenous IL-10 injection; type: in vivo; settings: IL-10 1 μg per mouse, tail vein, vs PBS control
Protocol: as §1, §2, §3
62.5 mg of IMQ were applied to the shaved back skin of wild-type (WT) mice for 5 days. IL-10 (1 μg per mouse) or PBS was injected into mice through tail vein on 1 h before IMQ application on day 0 and day 2. Samples were collected on day 5 for subsequent experiments.
1) The back skin thickness, scaling and erythema development of mice were observed on days 0 -5 after applying IMQ to the shaved back skin of mice, and scored. The method is the same as that in the example 2;
2) Statistical analysis of epidermal thickness was performed; the method is the same as that in the example 2.
3) The mRNA levels of IMQ induced mouse skin pathogenic factors were detected by quantitative PCR. The method was the same as that in the example 1.

Molecule	scaling ([1]; day 0 and day 2)	skin thickness ([1]; day 0 and day 2)	psoriasiform phenotype ([1]; day 0 and day 2, IMQ 5 days)	epidermal thickness ([1]; H&E sections, day 5)	mRNA level of IL-10 in skin ([1]; day 5 skin)	proinflammatory cytokines (skin mRNA, quantitative PCR) ([1]; day 5 skin)	erythema ([2]; day 0 and day 2)	psoriasiform phenotype ([2]; day 0 and day 2)	scaling ([2]; day 0 and day 2)	skin thickness ([2]; day 0 and day 2)	epidermal thickness ([2]; day 5)	proinflammatory cytokines (skin mRNA, quantitative PCR) ([2]; day 5)
COc1ccc(S(=O)(=O)N(CCO)c2ccccc2CN(C)C/C=C/c2ccc(Cl)cc2)cc1 [KN-93]	reduce	reduce	less than that of control mice	reduce	higher than that of control mice	reduce						
B1							reduced	attenuated	reduced	reduced	reduced	reduced
